Patent US12404304B1, “Telomerase reverse transcriptase (TERT) expression enhancing compounds and methods for using the same” (Sierra Sciences, LLC, priority 2007, dated 2025)

How the values were obtained:
[1] = system: human TERT expression (hTERT mRNA); test: Quantitative real-time RT-PCR of hTERT mRNA expression (Ct, transcripts) in compound-treated cells; format: cell-based
In short: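 Read-out is cycle threshold, the cycle at which probe fluorescence released by Taq 5′-nuclease activity crosses a set level; Ct falls as hTERT mRNA rises. cDNA of treated and untreated cells was compared, with starting transcripts quantified against a known-cDNA standard curve.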

viable cells in culture = test: Cell viability assay (CellTiter-Glo Luminescent Cell Viability Assay, ATP quantitation, percent of vehicle control)

| Structure (SMILES) | Average Number of hTERT Transcripts [1] | Average Cell Viability after 24 Hours (% DMSO) (viable cells in culture) |
| --- | --- | --- |
| Cc1ccc2nc(-c3ccc(NC(=S)Nc4cccc([N+](=O)[O-])c4)cc3)sc2c1 [compound 1443] | 7.82 | 77.16 % DMSO |
| CC(=O)Oc1ccc2c(=O)c(Oc3ccc4ccccc4c3)c(C(F)(F)F)oc2c1 [compound 1444] | 16.54 | 64.02 % DMSO |
| CCOC(=O)C(=O)Nc1ccc(S(=O)(=O)N2CC(C)CC(C)C2)cc1 (stereo not shown) [compound 1445] | 6.33 | 87.20 % DMSO |
| CC(C)(C)C(=O)Nc1nc2c(Cl)c(Cl)ccc2s1 [compound 1446] | 46.62 | 65.61 % DMSO |
| O=C(Cn1cnc2ccccc21)NCCCN1CCOCC1 [compound 1447] | 5.30 | 96.56 % DMSO |
| FC(F)(F)c1cccc(NC(=S)Nc2ccc(Cc3ccncc3)cc2)c1 [compound 1449] | 48.57 | 53.58 % DMSO |
| COc1cc(CNC2CCCC2)ccc1OCCO [compound 1450] | 8.24 | 96.61 % DMSO |
| COc1cc(C)ccc1OC1CCNCC1 [compound 1451] | 5.80 | 96.84 % DMSO |
| O=C(OCc1cc(=O)n2nc(C3CC3)sc2n1)c1ccc(NC(=O)c2ccco2)cc1 [compound 1452] | 7.45 | 81.09 % DMSO |
| CC(C)(C)NC(=O)NCc1nnnn1-c1ccccc1 [compound 1453] | 11.03 | 97.19 % DMSO |
| Cc1cccn2c(=O)cc(COc3ccc(NC(=O)c4cccs4)cc3)nc12 [compound 1454] | 3.99 | 97.09 % DMSO |
| NNc1ncnc2sc3c(c12)CCCC3 [compound 1455] | 130.06 | 84.96 % DMSO |
| Nc1c2ccccc2nc2ccccc12 [compound 1456] | 92.07 | 57.96 % DMSO |
| O=C(CCc1ccccc1)NC(c1cccc([N+](=O)[O-])c1)c1c(O)ccc2ccccc12 (stereo not shown) [compound 1458] | 10.26 | 62.79 % DMSO |
| COC(=O)c1ccc(Cl)c2c1C1C=CCC1C(c1cccc(F)c1)N2 (stereo not shown) [compound 1459] | 11.14 | 72.75 % DMSO |
| Cc1cc(C)c2c3c1C1C=CCC1CN3C(C(=O)O)C1CC=CC21 (stereo not shown) [compound 1460] | 46.47 | 89.11 % DMSO |
| CC(=O)Oc1ccc(C2Nc3ccc4ccccc4c3C3C=CCC32)c(OC(C)=O)c1 (stereo not shown) [compound 1461] | 29.65 | 55.44 % DMSO |
| CC1=NN(c2ccc(C)c(C)c2)C(=O)/C1=C\NNC(=O)c1ccccc1 [compound 1464] | 18.97 | 67.60 % DMSO |
| CC1=NN(c2ccccc2)C(=O)/C1=C\NNC(=O)c1ccccc1 [compound 1465] | 20.29 | 80.62 % DMSO |
| Cc1cc(=O)c2c(=O)n(-c3nc4ccccc4s3)[nH]c2[nH]1 [compound 1466] | 97.31 | 75.47 % DMSO |
| O=C(O)CCc1ccc(-c2ccc(Cl)cc2)o1 [compound 1467] | 108.02 | 79.50 % DMSO |
| CC[C@@]1(C2O[C@@H](C3O[C@@](O)(CC)[C@H](C)C[C@@H]3C)C[C@@H]2C)CC[C@H]([C@]2(C)CCC3(C[C@H](O)[C@@H](C)[C@@H]([C@H](C)[C@@H](OC)[C@H](C)C(=O)O)O3)O2)O1 (stereo partly shown) [compound 1469] | 59.72 | 60.18 % DMSO |
| O=C(c1cnn2c(C(F)(F)F)cc(-c3ccco3)nc12)N1CCCCC1 [compound 1471] | 148.88 | 90.01 % DMSO |
| CC(/C=C/C(=O)NO)=C\C(C)C(=O)c1ccc(N(C)C)cc1 (stereo not shown) [compound 1472] | 76.60 | 82.14 % DMSO |

| Structure (SMILES) | Average Number of hTERT Transcripts [1] | Average Cell Viability after 24 Hours (% DMSO) (viable cells in culture) |
| --- | --- | --- |
| CC(/C=C/c1ccc(N(C)C)cc1)=N\NC(=N)SC1CC(=O)N(c2ccc(Cl)cc2)C1=O (stereo not shown) [compound 1473] | 32.72 | 69.29 % DMSO |
| c1ccc(-n2ncc3c2-c2[nH]c4ccccc4c2CC3)cc1 [compound 1474] | 17.37 | 80.47 % DMSO |
| Clc1ccc(OCc2nn3c(Cc4ccccc4)nnc3s2)c(Cl)c1 [compound 1475] | 17.56 | 67.26 % DMSO |
| c1ccc(-c2nc3cc(Oc4ccc5[nH]c(-c6ccccn6)nc5c4)ccc3[nH]2)nc1 [compound 1476] | 25.18 | 86.51 % DMSO |
| Cc1ccc(OCC(=O)N/N=C/c2c(C)nn(-c3ccccc3)c2O)c(C)c1 [compound 1483] | 5.19 | 81.33 % DMSO |
| CCCC1=NN(c2ccc(C(=O)OCC)cc2)C(=O)C1 [compound 1484] | 16.52 | 62.51 % DMSO |
| Cc1cc(OCC(=O)N/N=C/c2c(C)nn(-c3ccccc3)c2O)ccc1Cl [compound 1485] | 48.25 | 112.70 % DMSO |
| CCCc1cc(=O)n2ncc(-c3cccc(Br)c3)c2[nH]1 [compound 1486] | 51.80 | 73.20 % DMSO |
| Cc1ccc(-c2cc(C(=O)NCCc3ccc(S(N)(=O)=O)cc3)no2)cc1 [compound 1487] | 1.93 | 95.31 % DMSO |
| O=C(CSc1nnc(-c2ccncc2)o1)N1CCN(c2ccccc2F)CC1 [compound 1488] | 3.19 | 86.72 % DMSO |
| NCc1ccc(CNC(=O)c2cc(-c3cccs3)on2)cc1 [compound 1489] | 3.77 | 107.24 % DMSO |
| O=C(O)CCC(=O)Nc1nc(-c2ccccn2)cs1 [compound 1490] | 3.91 | 111.59 % DMSO |
| O=C(NCCSCc1ccccc1)c1cc(-c2cccs2)on1 [compound 1491] | 5.09 | 102.96 % DMSO |
| O=C(CNC(=O)c1cc(-c2cccs2)on1)c1ccccc1 [compound 1492] | 6.45 | 91.36 % DMSO |
| O=C(CSc1nnc(-c2ccncc2)o1)NCc1ccccc1Br [compound 1493] | 6.84 | 100.09 % DMSO |
| COc1ccc(CCNC(=O)c2cc(-c3cccs3)on2)cc1 [compound 1494] | 9.18 | 110.08 % DMSO |
| Cc1ccc(-c2cc(C(=O)Nc3nc4ccc(S(C)(=O)=O)cc4s3)no2)cc1 [compound 1495] | 10.81 | 85.84 % DMSO |
| O=C(Nc1nc(-c2ccccn2)cs1)c1ccc(-c2nc3ccccc3s2)s1 [compound 1496] | 11.43 | 12.76 % DMSO |
| COc1cccc(CCNC(=O)c2cc(-c3cccs3)on2)c1 [compound 1497] | 14.74 | 92.73 % DMSO |
| O=C(NCCc1c[nH]c2c(OCc3ccccc3)cccc12)c1cc(-c2cccs2)on1 [compound 1498] | 16.50 | 94.63 % DMSO |
| O=C(NCc1nccs1)c1cc(-c2cccs2)on1 [compound 1499] | 17.01 | 119.54 % DMSO |
| CN1CCN(c2ccc(CNC(=O)c3cc(-c4cccs4)on3)cc2)CC1 [compound 1500] | 17.14 | 110.86 % DMSO |
| COc1cc(CCNC(=O)c2cc(-c3cccs3)on2)cc(OC)c1 [compound 1501] | 24.13 | 99.31 % DMSO |
